Laboratory results as given in US20200029558A1, “Biocidal Microcapsules for Biofouling Control” (Greenseal Research Ltd, priority 2016, published 2020).

Key:
Assay type in all cases: cell-based
[1] = test system: Staphylococcus aureus (ATCC 25923); assay: Well diffusion antimicrobial bioassay of microcapsules; conditions: wells approx. 5.0 mm, 37° C. 24 hours
Experimental: (§1) Bioassays were performed to assess the antimicrobial activity against Staphylococcus aureus (ATCC 25923) by the Well diffusion method, at different mediums (artificial sea water (Sera marine salt), DMSO and MilliQ water). Initially, the microorganisms were cultured on Muller-Hinton agar for bacteria Staphylococcus aureus. Then, 100 μL of a standardized microorganism suspension, corresponding to 0.5 McFarland, was used to inoculate a Petri dish of solid Mueller-Hinton medium. These suspensions were spread over the medium surface using a sterile swab. Subsequently, agar wells were made of approximately 5.0 mm in diameter with a Pasteur pipette. Then, 50 μL of each sample, negative control (DMSO) and positive control (Econea) for Gram positive bacteria (Staphylococcus aureus), were added on each of the wells. Plates were incubated at 37° C. for 24 hours. After this period, the diameters of the inhibition zones were measured and the results were expressed in millimeters (mm). The assay was performed under aseptic conditions and in triplicate [M. Pereira, D. Matias, F. Pereira, C. P. Reis, M. F. Simões, P. Rijo, Antimicrobial screening of Plectranthus madagascariensis and P. neochilus extracts, Biomedical and Biopharmaceutical Research, Vol. 12 (2015) 127-138]. Following the above described procedure, different mediums were used to assess the bioactivity of microcapsules, such as artificial sea water, MilliQ water and dimethyl sulfoxide (DMSO) (Table 1).
Following similar bioassays procedures as example 1, different mediums were used to assess the bioactivity of microcapsules, such as artificial sea water, MilliQ water and dimethyl sulfoxide (DMSO) (Table 3).

[2] = test system: Staphylococcus aureus (ATCC25923); assay: Antimicrobial activity of coating formulation films containing biocidal microcapsules
Experimental: as §1, with “Following the above described procedure, different mediums were used to assess the bioactivity of microcapsules, such as artificial sea water, MilliQ water and dimethyl sulfoxide (DMSO) (Table 1).” left out

[3] = test system: Staphylococcus aureus (ATCC25923); assay: Leaching tests on coated specimens (adapted OECD 313-2007), leaching waters assessed by bioassay; conditions: after 30 days of exposure in artificial sea water, 120 rpm
Experimental: as §1, with “The assay was performed under aseptic conditions and in triplicate [M. Pereira, D. Matias, F. Pereira, C. P. Reis, M. F. Simões, P. Rijo, Antimicrobial screening of Plectranthus madagascariensis and P. neochilus extracts, Biomedical and Biopharmaceutical Research, Vol. 12 (2015) 127-138]. Following the above described procedure, different mediums were used to assess the bioactivity of microcapsules, such as artificial sea water, MilliQ water and dimethyl sulfoxide (DMSO) (Table 1).” left out
Leaching of the biocide through the paint films of coated specimens containing the developed biocidal MCs was assessed by leaching tests, following an adapted procedure from the standard OECD 313-2007. […] Finally, the antimicrobial activity of the leaching waters was assessed by bioassays against microorganisms such as Staphylococcus aureus, following the same procedure as described in the previous examples.

Q: How did the Inhibition zones ([1]; medium DMSO) turn out when `N#Cc1c(-c2ccc(Cl)cc2)[nH]c(C(F)(F)F)c1Br` [Econea biocide, 2-(p-chlorophenyl)-3-cyano-4-bromo-5-trifluoromethyl pyrrole] was run?
A: 19 mm

Q: And the Inhibition zones ([1]; medium MilliQ water)?
A: 23 mm

Q: What about the Inhibition zones ([1]; medium artificial sea water) of the same compound?
A: 20 mm

Q: What about the “Inhibition zones of polyurethane based coating formulations” value ([2]; medium DMSO) of the same compound?
A: 20 mm

Q: What about the “Inhibition zones of polyurethane based coating formulations” value ([2]; medium artificial sea water) of the same compound?
A: 18 mm

Q: What about the “Inhibition zones of leaching waters of immersed coated specimens” value [3] of the same compound?
A: 20 mm
